Assay results: patent publication US8158646B2, “Antifungal and antiparasitic indoloquinoline derivates” (Florida Agricultural and Mechanical University, priority 2006, dated 2012)
Values after ≈ are worked out from the molar mass of the structure shown. Like-named read-outs stand apart in the source and are kept apart here.

What was measured:
[1] = tested on: Aspergillus fumigatus ATCC 90906; experiment: Antimicrobial susceptibility testing, Af; type: cell-based; conditions: ATCC90906, read-out: IC50 Af
Procedure: (§1) Compounds were evaluated in vitro against a panel of microorganisms, including Candida albicans ATCC 90028 (Ca), C. krusei ATCC 6258 (Ck), Cryptococcus neoformans ATCC 90113 (Cn), Staphylococcus aureus ATCC 29213 (Sa), methicillin-resistant S. aureus ATCC 43300 (MRSA), Pseudomonas aeruginosa ATCC 27853 (Pa), Aspergilllus fumigatus ATCC 90906 (Aj), and Mycobacterium intracellulare ATCC 23068 (Mi) as previously reported [Guoyi, M.; Khan, S.; Jacob, M. R; Tekwani, B. L.; Li, Z.; Pasco, D. S.; Walker, L. A.; Khan, 1. A.; Antimicrob Agents Chemother, 2004, 48, 4450-4452]. All organisms were obtained from the American Type Culture Collection (Manassas, Va.). Susceptibility testing was performed using a modified version of the NCCLS methods [a) National Committee for Clinical Laboratory Standards. 2000. Methods for dilution antimicrobial susceptibility tests for bacteria that grow aerobically. M7-A5. National Committee for Clinical Laboratory Standards, Wayne, Pa. b) National Committee for Clinical Laboratory Standards, 1997, Reference method for broth dilution antifungal susceptibility testing of yeasts. Approved standard M27-A. National Committee for Clinical Laboratory Standards, Wayne, Pa. c) National Committee for Clinical Laboratory Standards. 2000. Susceptibility testing of mycobacteria, nocardia, and other aerobic actinomycetes, 2nd ed. Tentative standard M24- T2. National Committee for Clinical Laboratory Standards, Wayne, Pa.] for all organisms except for M intracellulare, for which the modified Alamar blue procedure described by Franzblau et al [1998. J Clin Microbiol, 36, 362-366] was followed. Briefly, samples (dissolved in DMSO) were serially diluted by using 0.9% saline and transferred in duplicate to 96-well microplates. Microbial inocula were prepared after comparison of the absorbance (at 630 nm) of cell suspensions to the 0.5 McFarland standard and dilution of the suspensions in broth (Sabouraud dextrose and cation-adjusted Mueller-Hinton broth [Difco] for the fungi and bacteria, respectively, and 5% Alamar blue [BioSource international] in Middlebrook 7H9 broth with oleic acid-albumin-dextrose-catalase enrichment for M intracellulare) to afford recommended inoculum sizes. Microbial inocula were added to the samples to achieve a final volume of 200 μl and final sample concentrations starting with 100 μg/ml. Growth, solvent, and medium controls were included on each test plate. The plates were read at either 630 nm or excitation and emission wavelengths of 544 and 590 nm (for Mi) prior to and after incubation. Percent growth was calculated and plotted with the concentration tested to afford the concentration that inhibits 50% of growth (IC50). […]

C. krusei ATCC 6258 = experiment: Antimicrobial susceptibility testing, Ck; type: cell-based, Candida krusei; conditions: Pichia kudriavzevii
Procedure: as §1, with “National Committee for Clinical Laboratory Standards, Wayne, Pa.] for all organisms except for M intracellulare, for which the modified Alamar blue procedure described by Franzblau et al [1998. J Clin Microbiol, 36, 362-366] was followed. Briefly, samples (dissolved in DMSO) were serially diluted by using 0.9% saline and transferred in duplicate to 96-well microplates.” left out, “Microbial inocula were added to the samples to achieve a final volume of 200 μl and final sample concentrations starting with 100 μg/ml. Growth, solvent, and medium controls were included on each test plate.” left out, “incubation.” for “incubation. Percent growth was calculated and plotted with the concentration tested to afford the concentration that inhibits 50% of growth (IC50).”

[2] = tested on: methicillin-resistant S. aureus ATCC 43300; experiment: Antimicrobial susceptibility testing, MRSA; type: cell-based, Staphylococcus aureus; conditions: read-out: IC50 MRSA
Procedure: as §1

[3] = tested on: Mycobacterium intracellulare ATCC 23068; experiment: Modified Alamar blue procedure, Mi; type: cell-based; conditions: ATCC23068, read-out: IC50 Mi
Procedure: as §1

[4] = tested on: Plasmodium falciparum D6 Clone; experiment: Antimalarial testing, D6 clone; type: cell-based; conditions: for IC50: Plasmodium falciparum; for SI (D6): SI = IC50 (vero cells)/IC50 (Pf)
Procedure: (§2) All organisms were obtained from the American Type Culture Collection (Manassas, Va.). Susceptibility testing was performed using a modified version of the NCCLS methods [a) National Committee for Clinical Laboratory Standards. 2000. Methods for dilution antimicrobial susceptibility tests for bacteria that grow aerobically. M7-A5. […] Approved standard M27-A. National Committee for Clinical Laboratory Standards, Wayne, Pa. c) National Committee for Clinical Laboratory Standards. 2000. Susceptibility testing of mycobacteria, nocardia, and other aerobic actinomycetes, 2nd ed. Tentative standard M24- T2. […] Briefly, samples (dissolved in DMSO) were serially diluted by using 0.9% saline and transferred in duplicate to 96-well microplates. Microbial inocula were prepared after comparison of the absorbance (at 630 nm) of cell suspensions to the 0.5 McFarland standard and dilution of the suspensions in broth (Sabouraud dextrose and cation-adjusted Mueller-Hinton broth [Difco] for the fungi and bacteria, respectively, and 5% Alamar blue [BioSource international] in Middlebrook 7H9 broth with oleic acid-albumin-dextrose-catalase enrichment for M intracellulare) to afford recommended inoculum sizes. Microbial inocula were added to the samples to achieve a final volume of 200 μl and final sample concentrations starting with 100 μg/ml. Growth, solvent, and medium controls were included on each test plate. […] Antimalarial and cytotoxicity testing were conducted in a similar manner as previously reported [a) Muhammad, 1.; Bedir, E.; Khan, S. I.; Tekwani, B. L.; Khan, I. A.; Takamatsu, S.; Pelletier, 1.; Walker, L. A. J Nat Prod.

[5] = tested on: Plasmodium falciparum W2 Clone; experiment: Antimalarial testing, W2 clone; type: cell-based; conditions: for IC50: Plasmodium falciparum; for SI (W2): SI = IC50 (vero cells)/IC50 (Pf)
Procedure: (§3) Compounds were evaluated in vitro against a panel of microorganisms, including Candida albicans ATCC 90028 (Ca), C. krusei ATCC 6258 (Ck), Cryptococcus neoformans ATCC 90113 (Cn), Staphylococcus aureus ATCC 29213 (Sa), methicillin-resistant S. aureus ATCC 43300 (MRSA), Pseudomonas aeruginosa ATCC 27853 (Pa), Aspergilllus fumigatus ATCC 90906 (Aj), and Mycobacterium intracellulare ATCC 23068 (Mi) as previously reported [Guoyi, M.; Khan, S.; Jacob, M. R; Tekwani, B. L.; Li, Z.; Pasco, D. S.; Walker, L. A.; Khan, 1. A.; Antimicrob Agents Chemother, 2004, 48, 4450-4452]. All organisms were obtained from the American Type Culture Collection (Manassas, Va.). Susceptibility testing was performed using a modified version of the NCCLS methods [a) National Committee for Clinical Laboratory Standards. 2000. Methods for dilution antimicrobial susceptibility tests for bacteria that grow aerobically. M7-A5. National Committee for Clinical Laboratory Standards, Wayne, Pa. b) National Committee for Clinical Laboratory Standards, 1997, Reference method for broth dilution antifungal susceptibility testing of yeasts. Approved standard M27-A. National Committee for Clinical Laboratory Standards, Wayne, Pa. c) National Committee for Clinical Laboratory Standards. 2000. Susceptibility testing of mycobacteria, nocardia, and other aerobic actinomycetes, 2nd ed. Tentative standard M24- T2. National Committee for Clinical Laboratory Standards, Wayne, Pa.] for all organisms except for M intracellulare, for which the modified Alamar blue procedure described by Franzblau et al [1998. J Clin Microbiol, 36, 362-366] was followed. Briefly, samples (dissolved in DMSO) were serially diluted by using 0.9% saline and transferred in duplicate to 96-well microplates. Microbial inocula were prepared after comparison of the absorbance (at 630 nm) of cell suspensions to the 0.5 McFarland standard and dilution of the suspensions in broth (Sabouraud dextrose and cation-adjusted Mueller-Hinton broth [Difco] for the fungi and bacteria, respectively, and 5% Alamar blue [BioSource international] in Middlebrook 7H9 broth with oleic acid-albumin-dextrose-catalase enrichment for M intracellulare) to afford recommended inoculum sizes. Microbial inocula were added to the samples to achieve a final volume of 200 μl and final sample concentrations starting with 100 μg/ml. Growth, solvent, and medium controls were included on each test plate. The plates were read at either 630 nm or excitation and emission wavelengths of 544 and 590 nm (for Mi) prior to and after incubation. Percent growth was calculated and plotted with the concentration tested to afford the concentration that inhibits 50% of growth (IC50). Antimalarial and cytotoxicity testing were conducted in a similar manner as previously reported [a) Muhammad, 1.; Bedir, E.; Khan, S. I.; Tekwani, B. L.; Khan, I. A.; Takamatsu, S.; Pelletier, 1.; Walker, L. A. J Nat Prod. 2004, 67, 772-7. b) Muhammad, 1.; Dunbar, D. C.; Khan, S. 1.; Tekwani, B. L.; Bedir, E.; Takamatsu, S.; Ferreira, D, Walker L A., J Nat Prod. 2003, 66, 962-7].

Vero cells = experiment: Cytotoxicity to mammalian cells (Vero); type: cell-based
Procedure: as §2

[6] = tested on: Pseudomonas aeruginosa ATCC 27853; experiment: Antimicrobial susceptibility testing, Pa; type: cell-based; conditions: ATCC27853, NA = Not active up to 20 μg/ml
Procedure: (§4) Compounds were evaluated in vitro against a panel of microorganisms, including Candida albicans ATCC 90028 (Ca), C. krusei ATCC 6258 (Ck), Cryptococcus neoformans ATCC 90113 (Cn), Staphylococcus aureus ATCC 29213 (Sa), methicillin-resistant S. aureus ATCC 43300 (MRSA), Pseudomonas aeruginosa ATCC 27853 (Pa), Aspergilllus fumigatus ATCC 90906 (Aj), and Mycobacterium intracellulare ATCC 23068 (Mi) as previously reported [Guoyi, M.; Khan, S.; Jacob, M. R; Tekwani, B. L.; Li, Z.; Pasco, D. S.; Walker, L. A.; Khan, 1. A.; Antimicrob Agents Chemother, 2004, 48, 4450-4452]. All organisms were obtained from the American Type Culture Collection (Manassas, Va.). Susceptibility testing was performed using a modified version of the NCCLS methods [a) National Committee for Clinical Laboratory Standards. 2000. […] Microbial inocula were prepared after comparison of the absorbance (at 630 nm) of cell suspensions to the 0.5 McFarland standard and dilution of the suspensions in broth (Sabouraud dextrose and cation-adjusted Mueller-Hinton broth [Difco] for the fungi and bacteria, respectively, and 5% Alamar blue [BioSource international] in Middlebrook 7H9 broth with oleic acid-albumin-dextrose-catalase enrichment for M intracellulare) to afford recommended inoculum sizes. […] The plates were read at either 630 nm or excitation and emission wavelengths of 544 and 590 nm (for Mi) prior to and after incubation. […]

[7] = tested on: Staphylococcus aureus ATCC 29213; experiment: Antimicrobial susceptibility testing, Sa; type: cell-based; conditions: ATCC29213
Procedure: as §4

[8] = tested on: Cryptococcus neoformans ATCC 90113; experiment: Antifungal susceptibility testing (modified NCCLS), Cn; type: cell-based; conditions: ATCC90113, NA not defined in Table 1, read-out: IC50 Cn
Procedure: as §3

[9] = tested on: Candida albicans ATCC 90028; experiment: Antifungal susceptibility testing (modified NCCLS), Ca; type: cell-based; conditions: ATCC90028, NA not defined in Table 1, read-out: IC50 Ca
Procedure: as §3

[10] = D6, read-out: Plasmodium falciparum IC50 Pf (D6)
[11] = W2, read-out: Plasmodium falciparum IC50 Pf (W2)
[12] = Vero cells, NC = No Cytotoxicity observed up to 5 μg/ml
[13] = Methicillin-Resistant Staphylococcus aureus
[14] = D6 Clone, read-out: Plasmodium falciparum IC50 Pf (D6)
[15] = W2 Clone, NA = Not active up to 20 μg/ml, read-out: Plasmodium falciparum IC50 Pf (W2)

Compound	IC50 [1] [µg/mL]	IC50 (C. krusei ATCC 6258; ATCC6258, read-out: IC50 Ck) [µg/mL]	IC50 ([2]; Staphylococcus aureus) [µg/mL]	IC50 [3] [µg/mL]	IC50 [4, 10] [µg/mL]	SI (D6) ([4]; D6 Clone)	IC50 [5, 11] [µg/mL]	SI (W2) ([5]; W2 Clone)	Cytotoxicity (Vero) TC50 (Vero cells; [12]) [µg/mL]	melting point [°C]	IC50 [2, 13] [µg/mL]	IC50 [6] [µg/mL]	IC50 [7] [µg/mL]	IC50 [8] [µg/mL]	IC50 [9] [µg/mL]	IC50 [4, 14] [µg/mL]	IC50 [5, 15] [µg/mL]	Cytotoxicity (Vero) TC50 (Vero cells; African green monkey) [µg/mL]	no cytotoxicity up to (concentration) (Vero cells; African green monkey) [µg/mL]	IC50 (C. krusei ATCC 6258; ATCC6258, Candida krusei, read-out: IC50 Ck) [µg/mL]
Cn1c2c3ccccc3nc-2cc2ccccc21 [Compound 2b, cryptolepine, reference compound]	> 20	4.5 (≈ 19.4 µM)	20 (≈ 86.1 µM)	15 (≈ 64.6 µM)	0.044 (≈ 0.189 µM)	54	0.13 (≈ 0.56 µM)	18.5	2.4	–	–	–	–	–	–	–	–	–	–	–
C[n+]1c2ccccc2cc2c1c1ccccc1n2CCCCCn1c2ccccc2c2c1cc1ccccc1[n+]2C (hydrate or solvate) [Compound 12]	–	–	–	–	–	–	–	–	–	238 to 240	–	–	–	–	–	–	–	–	–	–
O=C(O)c1cn(C2CC2)c2cc(N3CCNCC3)c(F)cc2c1=O [Ciprofloxacin, reference compound]	–	–	–	0.2 (≈ 0.604 µM)	–	–	–	–	–	–	0.15 (≈ 0.453 µM)	0.06 (≈ 0.181 µM)	0.1 (≈ 0.302 µM)	–	–	–	–	–	–	–
c1ccc2c(c1)cc1[nH]c3ccccc3c1[n+]2CCCCC[n+]1c2ccccc2cc2[nH]c3ccccc3c21 [Compound 10]	20	–	–	7	–	>18.3	–	>23.8	–	–	3	1.5	3	1.5	> 50	1.3	1	>23.8	> 23.8	–
CCN(CC)CCCC(C)Nc1ccnc2cc(Cl)ccc12 (stereo not drawn) [Chloroquine, reference compound]	–	–	–	–	0.017 (≈ 0.0531 µM)	–	0.075 (≈ 0.234 µM)	–	>23.8	–	–	–	–	–	–	–	–	–	–	–
C[n+]1c2ccccc2cc2c1c1ccccc1n2CCCCCn1c2ccccc2c2c1cc1ccccc1[n+]2C [Compound 12]	20	–	–	15	–	>91.5	–	>170	–	–	6	–	–	2	2	0.26	0.14	>23.8	> 23.8	15
